ChEMBL document CHEMBL1144874, “Exploring structure-activity relationships of transition state analogues of human purine nucleoside phosphorylase” (J Med Chem, 2003)

Assays:
[1] = target: T1, Purine nucleoside phosphorylase (Homo sapiens, UniProt P00491)
T1 sequence (P00491 whole entry): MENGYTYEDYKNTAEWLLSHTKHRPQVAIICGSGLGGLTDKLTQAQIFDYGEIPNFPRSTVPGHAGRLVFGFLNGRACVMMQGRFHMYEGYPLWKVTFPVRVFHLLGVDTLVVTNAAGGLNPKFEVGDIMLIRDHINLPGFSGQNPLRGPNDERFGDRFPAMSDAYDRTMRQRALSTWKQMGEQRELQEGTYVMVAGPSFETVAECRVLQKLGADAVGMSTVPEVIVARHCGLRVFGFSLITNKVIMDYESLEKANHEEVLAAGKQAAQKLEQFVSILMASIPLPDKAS
Description: Inhibition of human purine nucleoside phosphorylase; Initial rate.

[2] = target: T1, Purine nucleoside phosphorylase; remark: listed apart in the source
Description: Equilibrium dissociation constant determined against human purine nucleoside phosphorylase (PNP) after slow-onset inhibition

| SMILES | Ki [1] [nM] | Ki [2] [nM] |
| --- | --- | --- |
| Cc1nc2c(O)[nH]cnc-2c1[C@@H]1N[C@H](CO)[C@H](O)C1O (stereo partly drawn) | 10.1 | – |
| Nc1nc(O)c2[nH]cc([C@H]3C[C@@H](O)[C@@H](CO)N3)c2n1 | 0.22 | – |
| OC[C@H]1N[C@@H](c2c[nH]c3c(O)ncnc23)C[C@H]1O | 0.25 | – |
| C[C@H]1N[C@@H](c2c[nH]c3c(=O)[nH]cnc23)C(O)[C@H]1O (stereo partly drawn) | 25 | – |
| Oc1ncnc2c([C@@H]3N[C@H](CF)[C@H](O)C3O)c[nH]c12 (stereo partly drawn) | 81 | 7 |
| Nc1[nH]cnc2c(C[C@@H]3N[C@H](CO)[C@H](O)C3O)cnc1-2 (stereo partly drawn) | > 30000 | – |
| OC[C@H]1N[C@@H](c2n[nH]c3c(O)ncnc23)[C@H](O)[C@@H]1O | 1.4 | 0.18 |
| COC1[C@@H](O)[C@@H](CO)N[C@H]1c1c[nH]c2c(=O)[nH]cnc12 (stereo partly drawn) | 5.9 | – |
| Nc1nc2c([C@@H]3N[C@H](CO)[C@@H](O)[C@H]3O)c[nH]c2c(=O)[nH]1 | 0.54 | 0.042 |
| OC[C@@H]1CC(O)[C@H](c2c[nH]c3c(O)ncnc23)N1 (stereo partly drawn) | 9.5 | – |
| OC[C@H]1N[C@@H](c2c[nH]c3c(O)ncnc23)C(F)(F)[C@H]1O | 1.4 | – |
| OC[C@H]1N[C@@H](c2c(F)[nH]c3c(O)ncnc23)C(O)[C@H]1O (stereo partly drawn) | 5.6 | 0.39 |
| CCCN1[C@H](CO)[C@H](O)C(O)[C@@H]1c1c[nH]c2c(O)ncnc12 (stereo partly drawn) | 415 | – |
| OC[C@H]1N[C@@H](Cc2c[nH]c3c(O)ncnc23)C(O)[C@H]1O (stereo partly drawn) | 250 | – |
| Cn1cc([C@@H]2N[C@H](CO)[C@H](O)C2O)c2ncnc(O)c21 (stereo partly drawn) | 4.7 | – |
| OC[C@@H]1[C@H](O)C(O)CN1Cc1c[nH]c2c(O)ncnc12 (stereo partly drawn) | 2.84 | – |
| COc1[nH]cnc2c([C@@H]3N[C@H](CO)[C@H](O)C3O)cnc1-2 (stereo partly drawn) | 4.7 | – |
| OC[C@@H]1[C@H](O)C(O)CN1c1c[nH]c2c(O)ncnc12 (stereo partly drawn) | 12700 | – |
| OC[C@H]1N[C@@H](c2c[nH]c3c(S)ncnc23)C(O)[C@H]1O (stereo partly drawn) | 24.7 | – |
